Common to all, as to format: functional
The target in one assay is T1, Substance-K receptor (Cavia porcellus, UniProt Q64077).
T1 sequence (Q64077 whole entry): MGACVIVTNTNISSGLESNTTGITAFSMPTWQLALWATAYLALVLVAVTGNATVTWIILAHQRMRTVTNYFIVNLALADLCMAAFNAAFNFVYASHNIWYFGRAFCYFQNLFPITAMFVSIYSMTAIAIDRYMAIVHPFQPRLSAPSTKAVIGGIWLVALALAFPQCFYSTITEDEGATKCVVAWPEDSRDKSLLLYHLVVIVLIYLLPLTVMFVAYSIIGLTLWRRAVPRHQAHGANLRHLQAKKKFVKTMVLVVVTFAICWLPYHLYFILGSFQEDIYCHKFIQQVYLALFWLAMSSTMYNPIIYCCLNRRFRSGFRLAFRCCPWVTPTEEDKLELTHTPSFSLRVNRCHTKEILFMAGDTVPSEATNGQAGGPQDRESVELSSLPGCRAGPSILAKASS
Description: Compound was evaluated for NK-2 receptor antagonistic activity in the guinea pig trachea. The settings on record: read-out: pA2 (converted).

The target in assay [1] is T2, Neuromedin-K receptor (Cavia porcellus) (UniProt P30098).
T2 sequence (whole entry): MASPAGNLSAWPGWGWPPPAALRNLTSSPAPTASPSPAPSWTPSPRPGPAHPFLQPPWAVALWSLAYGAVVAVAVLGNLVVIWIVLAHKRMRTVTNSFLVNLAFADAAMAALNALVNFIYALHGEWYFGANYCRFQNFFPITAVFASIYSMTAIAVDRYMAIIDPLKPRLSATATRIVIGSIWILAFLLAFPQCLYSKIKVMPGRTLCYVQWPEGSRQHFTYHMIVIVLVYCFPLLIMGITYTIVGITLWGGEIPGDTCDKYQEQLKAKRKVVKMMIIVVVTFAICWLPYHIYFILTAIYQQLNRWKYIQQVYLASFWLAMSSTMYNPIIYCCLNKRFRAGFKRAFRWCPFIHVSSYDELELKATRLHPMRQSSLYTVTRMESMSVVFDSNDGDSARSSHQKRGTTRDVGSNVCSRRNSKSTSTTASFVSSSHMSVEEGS
As to the kind of experiment: Compound was evaluated for NK-3 receptor antagonistic activity in the guinea pig trachea; Inactive.

Assay [2] concerns the target Substance-P receptor (Cavia porcellus) (UniProt P30547). Description: Compound was evaluated for NK-1 receptor antagonistic activity in the guinea pig trachea; Inactive.

The source made the active and inactive calls. The calls are words filed in the database; no cut-off is given here.

Chain of Substance-P receptor (Cavia porcellus) (P30547 whole entry): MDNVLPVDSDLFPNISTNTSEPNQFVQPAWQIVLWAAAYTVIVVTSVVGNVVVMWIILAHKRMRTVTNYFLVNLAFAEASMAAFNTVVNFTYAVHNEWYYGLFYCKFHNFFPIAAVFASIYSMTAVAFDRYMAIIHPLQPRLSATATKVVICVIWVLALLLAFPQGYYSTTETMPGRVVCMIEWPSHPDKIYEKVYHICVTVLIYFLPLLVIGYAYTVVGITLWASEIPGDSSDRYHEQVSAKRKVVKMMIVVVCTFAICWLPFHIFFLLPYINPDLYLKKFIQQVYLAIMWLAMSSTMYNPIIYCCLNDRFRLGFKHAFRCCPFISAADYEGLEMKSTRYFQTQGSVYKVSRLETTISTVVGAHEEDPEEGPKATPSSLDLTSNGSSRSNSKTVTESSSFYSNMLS

As for `O=c1c2cnn(-c3ccccc3)c2nc2scc(-c3ccccc3)n12`, the Kb on Substance-K receptor was 50.1 nM. Further, the pA2 entry in assay [1] and in assay [2] was “inactive” throughout.

The values above are taken from ChEMBL document CHEMBL1128906, “Synthesis and NK-2 antagonist effect of 1,6-diphenyl-pyrazolo [3,4-d]-thiazolo[3,2-a]4H-pyrimidin-4-one” (Bioorg Med Chem Lett, 1996).
